# Assay results as given in patent US11319289B2, “5-hydroxy pyridine-based compound for use as P2X1 and P2X3 receptor antagonist and pharmaceutical composition comprising same” (GWANGJU INSTITUTE OF SCIENCE AND TECHNOLOGY, priority 2017, dated 2022).
# Like-named read-outs stand apart in the source and are kept apart here.
# Assays:
# [1] = Metabolic stability in microsomes, mouse; format: in vitro ADME; conditions: 30 min
# [2] = Plasma protein binding by rapid equilibrium dialysis, human; format: in vitro ADME; conditions: plasma (50% in PBS)
# Method: Plasma protein binding was measured by rapid equilibrium dialysis (RED). A DMSO stock solution of the compounds was prepared at a concentration of 10 mM and diluted to a concentration of […] with 50% plasma in phosphate buffered saline (PBS, pH 7.4). Plasma samples (100 μL) and PBS (300 μL) were added to the sample chamber and the buffer chamber, respectively, after which the RED device was turn on and the samples were incubated in a shaking incubator at 37° C. for 4 hours. After dialysis, 50 μl aliquots were collected from each side of the chamber. 50 μl of blank plasma was added to the buffer sample, and 50 μl of PBS was also added to the plasma sample. 200 μL of acetonitrile containing an internal standard was added to each sample. The samples were centrifuged at 3200 g for 20 minutes at 4° C., and the supernatants were obtained and analyzed by an LC-MS/MS system. The plasma protein binding rate was calculated as follows: Free form (%)=(Buffer chamber/Plasma chamber)×100 Bound form (%)=100−Free form (%).
# [3] = Metabolic stability in microsomes, rat; format: in vitro ADME; conditions: for Metabolic stability, microsomes, Rat: 30 min
# Method: Metabolic stability of the compounds was evaluated in rat liver microsomes (RLM). Microsomes (0.5 mg/ml) and test compound (1 μM) in 100 mM potassium phosphate buffer (pH 7.4) were preincubated by shaking at 37° C. for 5 min (100 rpm). Metabolic reactions were initiated by adding an NADPH production system (60 mM potassium phosphate buffer at pH 7.4, 1.3 mM NADP, 3.3 mM glucose-6-phosphate, 0.3 μL glucose-6-phosphate dehydrogenase (0.4 U/mL), and 3.3 mM magnesium chloride) and incubating at 37° C. 100 μL aliquots were recovered at 0, 10, 20, 30 and 60 minutes, and the reaction was terminated by the addition of two volumes of ice-cold acetonitrile (ACN). After mixing by vortex and centrifugation (14000 rpm) for 15 minutes at 4° C., the supernatant was transferred to liquid chromatography vials and analyzed by an LC-MS/MS system.
# [4] = biological target: T1, human P2X7 receptor (hP2X7) (Homo sapiens, UniProt Q99572); assay: Ethidium bromide accumulation assay in hP2X7-expressing HEK293 cells; format: cell-based; conditions: 10 μM compound with BzATP
# T1 construct: expressed in transfected cells
# T1 sequence (Q99572 1-595): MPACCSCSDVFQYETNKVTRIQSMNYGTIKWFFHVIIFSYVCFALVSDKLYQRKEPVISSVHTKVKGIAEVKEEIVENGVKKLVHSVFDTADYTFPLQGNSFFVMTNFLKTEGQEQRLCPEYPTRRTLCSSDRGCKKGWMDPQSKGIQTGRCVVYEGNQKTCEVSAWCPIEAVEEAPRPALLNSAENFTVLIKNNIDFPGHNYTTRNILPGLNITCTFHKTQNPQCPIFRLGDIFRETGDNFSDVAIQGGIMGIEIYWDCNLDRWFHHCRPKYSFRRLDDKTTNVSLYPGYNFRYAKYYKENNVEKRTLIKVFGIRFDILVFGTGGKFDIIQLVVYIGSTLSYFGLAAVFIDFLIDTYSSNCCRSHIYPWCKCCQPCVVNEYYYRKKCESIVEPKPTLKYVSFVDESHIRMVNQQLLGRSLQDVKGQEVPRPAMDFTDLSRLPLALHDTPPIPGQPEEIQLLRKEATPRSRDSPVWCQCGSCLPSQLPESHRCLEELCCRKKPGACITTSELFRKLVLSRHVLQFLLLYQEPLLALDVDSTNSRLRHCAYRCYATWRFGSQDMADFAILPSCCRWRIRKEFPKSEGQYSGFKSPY
# Method: 1-2. Ethidium Bromide Accumulation Assay in hP2X-Expressing HEK293 Cells
# HEK293 cells that are stably transfected with the human P2X7 receptor (P2X7R) were kept under a humidified atmosphere of 5% CO2 at 37° C. in DMEM supplemented with 10% (v/v) FBS, 2 mM L-glutamine and antibiotics (50 U/mL penicillin and 50 μg/ml streptomycin). BzATP-induced pore formation was measured using a fluorescence plate reader by measuring cellular absorption of ethidium in the hP2X7-expressing HEK293 cells. The hP2X7-expressing HEK293 cells were washed once with an appropriate assay buffer, and the buffer was also removed before subsequent analysis. All studies were performed at room temperature and the final assay volume was 100 μL. The cells were resuspended at 2.5×10^6 cells/mL in assay buffers consisting of 10 mM HEPES, 5 mM N-methyl-D-glucamine, 5.6 mM KCl, 10 mM D-glucose and 0.5 mM CaCl2 (pH 7.4) and supplemented with 280 mM sucrose or 140 mM NaCl.
# In order to determine the antagonistic activity of the 5-hydroxyl-pyridine derivatives of the present invention and the reference compound (AZD9056), these compounds were added to the cells at a concentration of 10 μM with BzATP without pre-incubation. The cells were incubated for 2 hours under a humidified atmosphere of 5% CO2 at 37° C., and the absorption of ethidium dye was observed by measuring fluorescence with a Bio-Tek instrument FL600 fluorescent plate reader (excitation wavelength of 530 nm and emission wavelength of 590 nm). The results are expressed as a percentage relative to the maximum cumulative amount of ethidium bromide when stimulated with BzATP alone.
# In order to investigate the structure-activity relationship (SAR) of the compounds synthesized in the present invention, the antagonistic activity was evaluated by a two-electrode voltage clamp (TEVC) assay in Xenopus oocytes expressing the recombinant mP2X1 or hP2X3, respectively. The hP2X7R antagonistic activity was assessed using an ethidium ion accumulation assay in human HEK293 cells stably expressing the recombinant human P2X7R.
# [5] = pH 7.4, human plasma, read-out: Plasma protein binding rate, Human (converted)
"Metabolic stability, microsomes, Mouse [1]","fraction unbound at 4 h, 5 µM [2, 5]","Metabolic stability, microsomes, Rat [3]","fraction unbound at 4 h, 5 µM ([2]; pH 7.4, species not given, read-out: plasma protein binding)","metabolic stability ([3]; after 30 minutes, species not given)",hP2X7 % inhibition of ethidium bromide accumulation [4],Structure (SMILES)
35 % remaining after 30 min,0.005,33 % remaining after 30 min,,,,"CCCc1nc(Cc2cccc(Oc3ccccc3)c2)c(C)c(C(=O)OC)c1O [Compound 28, Methyl 3-hydroxy-5-methyl-6-(3-phenoxybenzyl)-2-propylisonicotinate]"
2 % remaining after 30 min,0.001 ± 6.01e-07,0 % remaining after 30 min,< 0.01,< 5%,Inactive,"CCCc1nc(Cc2cccc(Oc3ccccc3)c2)c(C)c(C(=O)O)c1O [Compound 29, 3-Hydroxy-5-methyl-6-(3-phenoxybenzyl)-2-propylisonicotinic acid]"
,,,,,inactive,"CCCc1nc(CCc2ccc(OC)cc2)c(C(=O)O)c(C(=O)O)c1O [Compound 13d, 5-Hydroxy-2-(4-methoxyphenethyl)-6-propylpyridine-3,4-dicarboxylic acid]"
